Experimental data from PubChem BioAssay (NCI).
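1) Cells in 96-well plates. 2) Compound, 48 h, 5 concentrations. 3) Linear interpolation between surrounding doses. 4) Unreached endpoint = highest concentration. Abbreviation: GI50, concentration required for 50% inhibition of growth. The concentration for full growth arrest is given as TGI.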

What was measured:
Assay in all cases: NCI tumour cell line growth inhibition, 48 h
NCI-H522 lung = tested on: NCI-H522 lung
RXF 393 renal = tested on: RXF 393 renal
LOX IMVI melanoma = tested on: LOX IMVI melanoma
HL-60(TB) leukemia = tested on: HL-60(TB) leukemia
OVCAR-3 ovarian = tested on: OVCAR-3 ovarian
HT29 colon = tested on: HT29 colon
IGROV1 ovarian = tested on: IGROV1 ovarian
SW-620 colon = tested on: SW-620 colon
SK-MEL-28 melanoma = tested on: SK-MEL-28 melanoma
HS 578T breast = tested on: HS 578T breast

Row | SMILES | TGI (NCI-H522 lung) | TGI (RXF 393 renal) | TGI (LOX IMVI melanoma) | TGI (HL-60(TB) leukemia) | TGI (OVCAR-3 ovarian) | TGI (HT29 colon) | TGI (IGROV1 ovarian) | TGI (SW-620 colon) | TGI (SK-MEL-28 melanoma) | GI50 (NCI-H522 lung) | GI50 (LOX IMVI melanoma) | GI50 (HL-60(TB) leukemia) | GI50 (OVCAR-3 ovarian) | GI50 (HT29 colon) | GI50 (IGROV1 ovarian) | GI50 (SW-620 colon) | GI50 (SK-MEL-28 melanoma) | GI50 (HS 578T breast) | TGI (HS 578T breast) | GI50 (RXF 393 renal)
1 | CC(=O)CCCCO | > 100 µM | > 100 µM | > 100 µM | > 100 µM | > 100 µM | > 100 µM | > 100 µM | > 100 µM | > 100 µM |  |  |  |  |  |  |  |  |  |  | 
2 | S=C1Nc2ccc(Cl)cc2C2(c3ccccc3)N3CCN=C3NN12 (centres undefined) | 48.1 µM |  | 36.2 µM | 53 µM | 55.2 µM | > 100 µM | 40.9 µM | 83.5 µM | > 100 µM | 21.7 µM | 17.6 µM | 22.7 µM | 25.7 µM | 28.1 µM | 17.4 µM | 29.2 µM | 30.9 µM |  |  | 
3 | CCN1c2ccccc2C(Cl)(c2ccc(N(C)C)cc2)c2ccccc21 |  |  | 13.6 µM | 4.7 µM | 8.53 µM | 12.4 µM | 7.98 µM | 12.1 µM | 22.4 µM |  | 3.67 µM | 1.89 µM | 2.93 µM | 2.88 µM | 2.61 µM | 2.9 µM | 7.96 µM | 4.89 µM | 27.3 µM | 
4 | COc1ccc(-c2ccc(-c3ccc(-c4ccc(C(=N)N)cc4)s3)s2)cc1OC | 62.2 µM | 34.6 µM |  | 28.1 µM | 1.47 µM |  | 3.78 µM | 4.2 µM | 40.6 µM | 14.1 µM |  | 7.47 µM | 0.369 µM |  | 0.937 µM | 0.882 µM | 18.1 µM | 21.2 µM | 48.1 µM | 11.2 µM
5 | O=Nc1ccc2ccccc2c1O | 4.17 µM | 27.3 µM | 5.71 µM |  | 5.01 µM | 13.4 µM | 5.91 µM | 10.5 µM | 22.2 µM | 1.78 µM | 1.68 µM |  | 1.9 µM | 3.46 µM | 2.07 µM | 2.88 µM | 9.08 µM | 1.56 µM | 5.07 µM | 14 µM
6 | Cc1cc(NS(=O)(=O)c2ccc(NC(=O)c3cccc4c(Nc5ccc(S(=O)(=O)N=C(N)N)cc5)c5ccccc5nc34)cc2)no1 | > 100 µM | > 100 µM | > 100 µM | > 100 µM | > 100 µM | > 100 µM | > 100 µM | > 100 µM | > 100 µM |  |  |  |  |  |  |  |  |  |  | 
7 | NC(N)=NNC(=O)CCCCCCCC(=O)NN=C(N)N |  | > 100 µM | > 100 µM | > 100 µM |  | > 100 µM | > 100 µM | 27.4 µM | > 100 µM |  |  |  |  |  |  |  |  |  |  | 
8 | Cc1ccc2c(c1)NC(=O)CC(c1ccccc1)=N2 | > 100 µM |  | > 100 µM |  | > 100 µM | > 100 µM | > 100 µM | > 100 µM | > 100 µM |  |  |  |  |  |  |  |  |  | > 100 µM | 
9 | Nc1c(C(=O)Nc2ccccc2)[n+]([O-])c2ccccc2[n+]1[O-] | 4.4 µM |  | 28.6 µM | 90.8 µM | 31.7 µM | 37 µM | 44.8 µM | 38.3 µM | 34.9 µM |  |  |  |  |  |  |  |  |  |  | 
10 | COc1ccc(/C=C\c2cc(OC)c(OC)c(OC)c2)cc1OC(=O)CCC(=O)O |  |  | > 100 µM | < 0.0001 µM |  | 12.2 µM | > 100 µM | > 100 µM | > 100 µM |  |  |  |  |  |  |  |  |  | > 100 µM | 
11 | c1ccc2c(c1)[nH]c1cnc3c4cccnc4[nH]c3c12 |  | 34.7 µM | 45 µM | 35.5 µM | 32.2 µM | 34.6 µM | 40.1 µM | 32.3 µM | 38.4 µM |  |  |  |  |  |  |  |  |  |  | 
12 | CSc1ccc2c3c(n(C[C@H](O)CO)c(=O)c2c1)-c1ccccc1C3=O | 25.5 µM | 23.3 µM |  | 11.7 µM | 41.9 µM | 6.38 µM | 85.3 µM | 43.6 µM | 48.8 µM | 2 µM |  | 1.81 µM | 4.33 µM | 1.33 µM | 3.77 µM | 0.978 µM | 4.46 µM | 15.8 µM | 78.8 µM | 3.5 µM
13 | COc1cc2c(cc1O)CC13CCC(=O)N1CCc1cc(OC)c(O)c-2c13 (centres undefined) |  | > 68.1 µM | > 68.1 µM | > 68.1 µM | > 68.1 µM | > 68.1 µM | > 68.1 µM | > 68.1 µM | > 68.1 µM |  |  |  |  |  |  |  |  |  |  | 
14 | CC(=O)OC1(C)C(=O)OC1(C)C(C)=O (centres undefined) | > 100 µM | > 100 µM | > 100 µM | > 100 µM | > 100 µM | > 100 µM | > 100 µM | > 100 µM | > 100 µM |  |  |  |  |  |  |  |  |  |  | 
15 | COc1ccc(/C=C/C(=O)Oc2cc(O)cc(O)c2)cc1 | > 100 µM | > 100 µM | 41.1 µM | 55.5 µM | 32.1 µM | > 100 µM | 76.1 µM | > 100 µM | > 100 µM |  |  |  |  |  |  |  |  |  |  | 
16 | CCN(c1ccc(Br)cc1)c1c(Br)c(=O)nc2ccccn12 | > 100 µM |  |  |  | > 100 µM | > 100 µM | > 100 µM | > 100 µM | > 100 µM |  |  |  |  |  |  |  |  |  |  | 
17 | CCCCOC(=O)NC(=O)c1cn(CCSCCOC(=O)NCCCCCCNC(=O)OCCSCCn2cc(C(=O)NC(=O)OCCCC)c(=O)[nH]c2=O)c(=O)[nH]c1=O | > 100 µM | > 100 µM | > 100 µM | > 100 µM | > 100 µM | > 100 µM | > 100 µM |  | > 100 µM |  |  |  |  |  |  |  |  |  |  | 
18 | CC(C)(C)C(=O)ON1N=NC2C3CC(OCc4ccccc4)(OCc4ccccc4)C(O3)C21 (centres undefined) |  | 36.5 µM | 32.8 µM | 19 µM | 35.9 µM | 47.9 µM | > 100 µM | 50.7 µM | 35.3 µM |  |  |  |  |  |  |  |  |  |  | 
19 | C1OC1CO[C@@H]1CO[C@H]2[C@@H]1OC[C@H]2OCC1CO1 (some centres undefined) | > 100 µM | > 100 µM | > 100 µM | > 100 µM | > 100 µM | > 100 µM | > 100 µM | > 100 µM | > 100 µM |  |  |  |  |  |  |  |  |  |  | 
20 | NC(=O)C(c1ccccc1)N1CCOCC1 (centres undefined) | > 100 µM | > 100 µM | > 100 µM | > 100 µM | > 100 µM | > 100 µM | > 100 µM | > 100 µM | > 100 µM |  |  |  |  |  |  |  |  |  |  | 
21 | COc1ccccc1/C=N\N=C(N/N=C/c1ccccc1OC)N/N=C/c1ccccc1OC | > 100 µM | > 100 µM | 11.3 µM | 9.26 µM | 13.1 µM | > 100 µM |  | 13.6 µM | > 100 µM | 4.55 µM | 3.33 µM | 3.09 µM | 2.55 µM | 3.87 µM |  | 3.38 µM | 6.41 µM | 2.88 µM | 53.2 µM | 5.01 µM
